In patent US20030077768A1, “Use of xylene monooxygenase for the oxidation of substituted polycyclic aromatic compounds” (priority 2001, published 2003):

Tests used:
[1] = Aqueous solubility (statement); assay type: physicochemical
Sphingomonas strain ASU1 = assay: Carbon source utilization (growth on S12 agar) by strain ASU1; assay type: cell-based; conditions: compound as sole source of carbon and energy, 28° C., listed as 2,6-DMN
Experimental: S12 agar was used to isolate bacteria from liquid enrichment cultures that grow on 2,6-DMN and to test isolates for growth with various sources of carbon and energy. S12 agar was prepared by adding 1.5% Noble agar (DIFCO) to S12 medium.
Since 2,6-DMN has low aqueous solubility, bacteria growing in S12 medium were supplied with 2,6-DMN by adding a few flakes of the compound directly to the culture. Bacteria growing on S12 agar were supplied with naphthalene, 2-methylnapthalene or 2,6-DMN by placing a few flakes of the compound on the interior of the petri dish lid. All petri dishes were sealed with parafilm and incubated with the lid on the bottom.
Bacteria that grow on 2,6-DMN were isolated from an enrichment culture. The enrichment culture was established by inoculating 0.1 mL of activated sludge into 10 mL of S12 medium in a 125 mL screw cap Erlenmeyer flask. The activated sludge was obtained from a DuPont wastewater treatment facility. The enrichment culture was supplemented with adding yeast extract (0.001% final concentration) by adding a few flakes of 2,6-DMN directly to the culture medium. The enrichment culture was incubated at 28° C. with reciprocal shaking. The culture was diluted every 4 to 7 d by replacing 9 mL of the culture with the same volume of S12 medium with 0.001% yeast extract and a few additional flakes of 2,6-DMN. […]

[2] = biological target: T1, pWWO xylene monooxygenase (Pseudomonas putida, UniProt P21395); assay: Oxidation of 2,6-DMN by Escherichia coli recombinant with cloned pWWO xylene monooxygenase genes (Clone 6f); assay type: cell-based; conditions: E. coli Clone 6f; M9 medium; 24 mg 2,6-DMN in FC-75 carrier phase; 37° C.; HPLC and GC/MS; metabolites 6-M-2-HMN, 6-M-2-NA, 2,6-HMN
T1 construct: A fragment of pWWO DNA that contained xylM and xylA was cloned into a small, multicopy plasmid; expressed in transfected cells; host or cells: Escherichia coli TOP10 carrying pCR2.1-TOPO with the 2.4 kb pWWO xylM-xylA PCR fragment from strain ATCC 33015 (Clone 6f)
Experimental: (§1) HPLC system used was a Hewlett Packard 1100 series with a photo diode array detector and LC/MSD-ESI Negative ion. Column used was Hewlett Packard part #880975-902 Zorbax® SB-C18 (4.6×12.5 mm, 5 micron), purchased from Agilient Technologies (Foster City, Calif.). The column temperature was controlled at 30° C. Mobile phase was […] ammonium acetate [20 mL 1 M ammonium acetate in 1800 mL water (solvent-2=S-2)] and acetonitrile (Solvent-1=S-1). The gradient used was 0-3 min 10% S-1 and 90% S-2, gradient was increased to 100% S-1 in 33 min, and again reduced to 10% S-1 and 90% S-2 in 3 min. Flow rate used for the mobile phase was 0.9 mL/min. 100 μL samples were injected, 230 nm wavelength was used for detection of the intermediates of 2,6-dimethylnaphthalene. Intermediates were prepared by as follows, as intermediates needed were not available in the market. Intermediates prepared were 6-methyl-2-napthoic acid, 6-methyl-2-hydroxymethylnaphthalene, and 2,6-Bis(hydroxymethyl)naphthalene. The retention time and diode array scans of the intermediates matched with the prepared standards. The mass spectrometer fragmentation pattern of the 6-methyl-2-napthoic acid in the sample matched that of the standards prepared.
(§2) GC/MS was also used to analyze the samples. […]
(§3) The conversion of 2,6-DMN to 2,6-NDC was monitored by reverse phase HPLC. […]

[3] = test system: ASU1 xylene monooxygenase; assay: Oxidation of 2,6-DMN by Escherichia coli recombinant with cloned ASU1 xylene monooxygenase genes (Clone 4a); assay type: cell-based, Sphingomonas strain ASU1; conditions: E. coli Clone 4a; M9 medium; 24 mg 2,6-DMN in FC-75 carrier phase; 37° C.; HPLC and GC/MS; metabolites 6-M-2-HMN, 6-M-2-NA, 2,6-NDC
Experimental: as §1, §2, §3

T1 sequence (P21395 whole entry, the tested form may be a part): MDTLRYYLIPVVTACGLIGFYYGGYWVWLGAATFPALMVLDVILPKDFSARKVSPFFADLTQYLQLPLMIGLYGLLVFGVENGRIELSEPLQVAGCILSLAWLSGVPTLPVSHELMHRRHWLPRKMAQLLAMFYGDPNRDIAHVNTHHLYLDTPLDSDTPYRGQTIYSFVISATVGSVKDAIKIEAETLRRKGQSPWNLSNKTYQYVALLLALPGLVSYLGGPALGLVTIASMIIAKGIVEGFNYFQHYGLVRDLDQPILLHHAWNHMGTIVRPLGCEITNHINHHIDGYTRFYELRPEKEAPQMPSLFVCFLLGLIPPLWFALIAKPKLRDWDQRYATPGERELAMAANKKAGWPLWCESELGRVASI

Cc1ccc2cc(C)ccc2c1 [2,6-dimethylnaphthalene, 2,6-Dimethylnaphthalene]
aqueous solubility [1]: low | Growth on Carbon Source (Sphingomonas strain ASU1): able to grow | Substrate for the pWWO xylene monooxygenase (oxidation by Clone 6f) [2]: substrate | Substrate for the ASU1 xylene monooxygenase (oxidation by Clone 4a) [3]: substrate
